Test results from US20200399222A1, “PICOLINAMIDES AS FUNGICIDES” (Dow AgroSciences LLC, priority 2018, published 2020).
Read-outs that look alike come from different tables or passages of the source.

Assays:
Format in all cases: in vivo
Zymoseptoria tritici = test: Leaf blotch of wheat (SEPTTR) disease control on wheat seedlings; conditions: Low volume application, 121.5 g/ha
Puccinia triticina = test: Wheat brown rust (PUCCRT) disease control on wheat seedlings; conditions: Low volume application, 121.5 g/ha
Summary of the method: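 Yuma wheat seedlings (first leaf emerged) sprayed to run-off with compound in acetone plus nine volumes water containing 110 ppm Triton X-100, or track-sprayed as EC formulations with 0.1% Trycol 5941. Rust spores inoculated before or after treatment; overnight dark dew, 22 °C, 100% RH, then greenhouse at 24 °C.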

Uncinula necator = test: Grape powdery mildew (UNCINE) disease control on grape seedlings; conditions: 1DP test at 100 ppm
Description: Technical grades of materials were dissolved in acetone, which were then mixed with nine volumes of water containing 110 ppm Triton X-100. The fungicide solutions were applied onto wheat seedlings using an automated booth sprayer to run-off. All sprayed plants were allowed to air dry prior to further handling. All fungicides were evaluated using the aforementioned method for their activity vs. all target diseases, unless stated otherwise. Wheat leaf blotch and brown rust activity were also evaluated using track spray applications, in which case the fungicides were formulated as EC formulations, containing 0.1% Trycol 5941 in the spray solutions. Example K: Evaluation of Fungicidal Activity: Grape Powdery Mildew (Uncinula necator; Bayer Code […]) Grape seedlings (variety Carignane) were grown in soil-less Metro mix, with one plant per pot, and used in the test when approximately 1 month old. Plants were inoculated 24 hr after fungicide treatment by shaking spores from infected leaves over test plants. Plants were maintained in a greenhouse set at 20° C. until disease was fully developed. Fungicide formulation, application and disease assessment on sprayed leaves followed the procedures as described in the Example A.

Alternaria solani = test: Tomato early blight (ALTESO) disease control on tomato plants; conditions: 1DP test at 100 ppm
Description: Technical grades of materials were dissolved in acetone, which were then mixed with nine volumes of water containing 110 ppm Triton X-100. The fungicide solutions were applied onto wheat seedlings using an automated booth sprayer to run-off. All sprayed plants were allowed to air dry prior to further handling. All fungicides were evaluated using the aforementioned method for their activity vs. all target diseases, unless stated otherwise. Wheat leaf blotch and brown rust activity were also evaluated using track spray applications, in which case the fungicides were formulated as EC formulations, containing 0.1% Trycol 5941 in the spray solutions. Example D: Evaluation of Fungicidal Activity: Tomato Early Blight (Alternaria solani; Bayer Code […]) Tomato plants (variety Outdoor Girl) were propagated in soil-less Metro mix, with each pot having one plant, and used when 12 to 14 days old. Test plants were inoculated with an aqueous spore suspension of Alternaria solani 24 hr after fungicide treatments. After inoculation the plants were kept in 100% relative humidity (one day in a dark dew chamber followed by two to three days in a lighted dew chamber at 20° C.) to permit spores to germinate and infect the leaf. The plants were then transferred to a growth room at 22° C. for disease to develop. […]

[1] = system: Pseudoperonospora cubensis; test: Cucumber downy mildew (PSPECU) disease control on cucumber seedlings; conditions: 1DP test at 100 ppm
Description: Technical grades of materials were dissolved in acetone, which were then mixed with nine volumes of water containing 110 ppm Triton X-100. The fungicide solutions were applied onto wheat seedlings using an automated booth sprayer to run-off. All sprayed plants were allowed to air dry prior to further handling. All fungicides were evaluated using the aforementioned method for their activity vs. all target diseases, unless stated otherwise. Wheat leaf blotch and brown rust activity were also evaluated using track spray applications, in which case the fungicides were formulated as EC formulations, containing 0.1% Trycol 5941 in the spray solutions. Example H: Evaluation of Fungicidal Activity: Cucumber Downy Mildew (Pseudoperonospora cubensis; Bayer Code […]) Cucumber seedlings (variety Bush Pickle) were grown in soil-less Metro mix, with one plant per pot, and used in the test when 12 to 14 days old. Plants were inoculated with a spore suspension 24 hr following fungicide treatments. […] After inoculation the plants were kept in a dew room at 22° C. with 100% relative humidity for 24 hr to permit spores to germinate and infect the leaf. The plants were then transferred to a greenhouse set at 20° C. until disease was fully expressed. […]

Phakopsora pachyrhizi = test: Asian soybean rust (PHAKPA) disease control on soybean seedlings; conditions: Phakopsora pachyrhizi, High volume application at 25 ppm
Summary of the method: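 Compounds in acetone diluted with nine volumes of water containing 0.011% Tween 20, sprayed to run-off on two-week-old Williams 82 soybean seedlings; inoculation 3 days before or 1 day after treatment. Plants held 24 h in dark dew room at 22° C, 100% RH, then at 23° C; disease severity scored on sprayed leaves.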

Rhyncosporium secalis = test: Barley scald (RHYNSE) disease control on barley seedlings; conditions: 1DP test at 100 ppm
Description: Technical grades of materials were dissolved in acetone, which were then mixed with nine volumes of water containing 110 ppm Triton X-100. The fungicide solutions were applied onto wheat seedlings using an automated booth sprayer to run-off. All sprayed plants were allowed to air dry prior to further handling. All fungicides were evaluated using the aforementioned method for their activity vs. all target diseases, unless stated otherwise. Wheat leaf blotch and brown rust activity were also evaluated using track spray applications, in which case the fungicides were formulated as EC formulations, containing 0.1% Trycol 5941 in the spray solutions. Example J: Evaluation of Fungicidal Activity: Barley Scald (Rhyncosporium secalis; Bayer Code […]) Barley seedlings (variety Harrington) were propagated in soil-less Metro mix, with each pot having 8 to 12 plants, and used in the test when first leaf was fully emerged. Test plants were inoculated by an aqueous spore suspension of Rhyncosporium secalis 24 hr after fungicide treatments. After inoculation the plants were kept in a dew room at 20° C. with 100% relative humidity for 48 hr. The plants were then transferred to a greenhouse set at 20° C. for disease to develop. Fungicide formulation, application and disease assessment on the sprayed leaves followed the procedures as described in the Example A.

[2] = 24 h, 1 Day Protectant, read-out: SEPTTR disease control rating, 1DP
[3] = 72 h, 3 Day Curative, read-out: SEPTTR disease control rating, 3DC
[4] = 24 h, 1 Day Protectant, read-out: PUCCRT disease control rating, 1DP
[5] = 72 h, 3 Day Curative, read-out: PUCCRT disease control rating, 3DC
[6] = 24 h, 1 day protectant, read-out: PHAKPA 1DP (1 Day Protectant) disease control
[7] = 72 h, 3 day curative, read-out: PHAKPA 3DC (3 Day Curative) disease control

Work on COc1ccnc(C(=O)N[C@@H](C)C(=O)O[C@@H](C)[C@@H](C)c2ccccc2C)c1OC(C)=O [Example 264] yielded a pest or weed control at 121.5 g/ha (Zymoseptoria tritici; [2]) of under 80%, a pest or weed control at 121.5 g/ha (Zymoseptoria tritici; [3]) of under 80% and a pest or weed control at 121.5 g/ha (Puccinia triticina; [4]) of over 80%. For the same compound, the pest or weed control at 121.5 g/ha (Puccinia triticina; [5]) was over 80%, the “UNCINE disease control rating” value (Uncinula necator) was “A (>80)” and the “ALTESO disease control rating” value (Alternaria solani) was “B (≤80)”. The “PSPECU disease control rating” value [1] was “B (≤80)”, the pest or weed control at 25 ppm (Phakopsora pachyrhizi; [6]) was over 80% and the pest or weed control at 25 ppm (Phakopsora pachyrhizi; [7]) was over 80%.

With COc1ccnc(C(=O)N[C@@H](C)C(=O)O[C@H](C)[C@H](C)c2ccccc2C)c1OC(C)=O [Example 263] the pest or weed control at 121.5 g/ha (Zymoseptoria tritici; [2]) was under 80%, the pest or weed control at 121.5 g/ha (Zymoseptoria tritici; [3]) was under 80% and the “RHYNSE disease control rating” value (Rhyncosporium secalis) was “B (≤80)”. For the same compound, the pest or weed control at 121.5 g/ha (Puccinia triticina; [4]) was under 80%, the pest or weed control at 121.5 g/ha (Puccinia triticina; [5]) was under 80% and the pest or weed control at 25 ppm (Phakopsora pachyrhizi; [6]) was over 80%. For the same compound, the pest or weed control at 25 ppm (Phakopsora pachyrhizi; [7]) was under 80%.

With COc1ccc([C@@H](C)[C@@H](C)OC(=O)[C@H](C)NC(=O)c2nccc(OC)c2OCOC(C)=O)c(C)c1 [Example 233] the pest or weed control at 121.5 g/ha (Zymoseptoria tritici; [2]) was under 80%, the pest or weed control at 121.5 g/ha (Zymoseptoria tritici; [3]) was under 80% and the pest or weed control at 121.5 g/ha (Puccinia triticina; [4]) was over 80%. It also gave a pest or weed control at 121.5 g/ha (Puccinia triticina; [5]) of under 80%, a pest or weed control at 25 ppm (Phakopsora pachyrhizi; [6]) of over 80% and a pest or weed control at 25 ppm (Phakopsora pachyrhizi; [7]) of under 80%.
